Measured values from ChEMBL document CHEMBL1136399, “Anti-AIDS agents 54. A potent anti-HIV chalcone and flavonoids from genus Desmos” (Bioorg Med Chem Lett, 2003).
In brackets after ≈: the same amount, converted by molar mass.

Assays:
H9 [1] = experiment: Concentration that inhibits uninfected H9 cell growth by 50%.; Did not dissolve; type: functional, cell-based, Homo sapiens
H9 [2] = experiment: Effective concentration against HIV-1 replication in H9 lymphocytic cells; No suppression; type: functional, cell-based, Homo sapiens
H9 [3] = experiment: Concentration that inhibits uninfected H9 cell growth by 50%.; type: functional, cell-based; settings: Homo sapiens
H9 [4] = experiment: Effective concentration against HIV-1 replication in H9 lymphocytic cells; type: functional, cell-based; settings: Homo sapiens
H9 [5] = experiment: Concentration that inhibits uninfected H9 cell growth by 50%.; Not dissolved; type: functional, cell-based, Homo sapiens
[6] = Therapeutic index determined by ratio of IC50 to EC50; settings: read-out: Therapeutic index

| SMILES | EC50 (H9 [2]) | IC50 (H9 [3]) | further results |
| --- | --- | --- | --- |
| Cc1c(O)c(C=O)c(O)c2c(=O)cc(-c3ccccc3)oc12 |  |  | IC50 (H9 [1]): Insoluble |
| COc1c(C)c(O)c(C=O)c2c1C(O)C[C@@H](c1ccccc1)O2 (stereo not given in full) | Not Active | 24.2 µg/mL (≈ 77 µM) |  |
| Cc1cn([C@H]2C[C@H](N=[N+]=[N-])[C@@H](CO)O2)c(=O)[nH]c1=O [ZIDOVUDINE] |  |  | EC50 (H9 [4]): 0.0221 µg/mL (≈ 0.0827 µM) |
| COc1cc2oc(-c3ccccc3)cc(=O)c2c(O)c1O | Not Active | 11.5 µg/mL (≈ 40.5 µM) |  |
| COc1cc2oc(-c3ccccc3)cc(=O)c2c(O)c1OC [MOSLOFLAVONE] | Not Active | 20.2 µg/mL (≈ 67.7 µM) |  |
| COc1c(C)c(O)c2c(c1C)O[C@H](c1ccccc1)CC2=O | Not Active | 1.77 µg/mL (≈ 5.93 µM) |  |
| Cc1c(O)c(C=O)c2oc(-c3ccccc3)cc(=O)c2c1O |  |  | IC50 (H9 [5]): Insoluble |
| Cc1c(O)c(C)c2c(c1O)C(=O)C[C@@H](c1ccccc1)O2 [DEMETHOXYMATTEUCINOL] |  | 20.8 µg/mL (≈ 73.2 µM) | EC50 (H9 [4]): 4.97 µg/mL (≈ 17.5 µM); selectivity ratio [6]: 4.18 |
| Cc1c(O)c(C=O)c2c(c1O)C(=O)C[C@@H](c1ccccc1)O2 | Not Active | 2.15 µg/mL (≈ 7.21 µM) |  |
| Cc1c(O)c(C=O)c(O)c(/C(O)=C/C(=O)c2ccccc2)c1O | Not Active | 18.8 µg/mL (≈ 59.8 µM) |  |
| COc1c(C)c(O)c2c(c1C=O)O[C@@H](C)[C@H](C(=O)c1ccccc1)C2=O | Not Active | 18.9 µg/mL (≈ 53.3 µM) |  |
| COc1c(C)c(O)c(/C(O)=C/C(=O)c2ccccc2)c(O)c1C=O |  | 10.7 µg/mL (≈ 32.6 µM) | EC50 (H9 [4]): 0.022 µg/mL (≈ 0.067 µM); selectivity ratio [6]: 489 |
| CC1=C(O)C(C)(C)C2=C(C(=O)C[C@@H](c3ccccc3)O2)C1=O | Not Active | 1.89 µg/mL (≈ 6.34 µM) |  |
| COC1=C(C)C(O)=C(C(=O)/C=C/c2ccccc2)C(=O)C1(C)C [DESMOSDUMOTIN C] | Not Active | 2.29 µg/mL (≈ 7.33 µM) |  |
| COc1c(C)c(O)c2c(=O)cc(-c3ccccc3)oc2c1C | Not Active | 19.8 µg/mL (≈ 66.8 µM) |  |
| Cc1c(O)c(C=O)c(O)c2c1O[C@H](c1ccccc1)CC2=O |  | 104 µg/mL (≈ 349 µM) | EC50 (H9 [4]): 2.3 µg/mL (≈ 7.71 µM); selectivity ratio [6]: 45.2 |
| COc1c(C)c(O)c(C=O)c2c1C(=O)C[C@@H](c1ccccc1)O2 |  | 108 µg/mL (≈ 346 µM) | EC50 (H9 [4]): 11 µg/mL (≈ 35.2 µM); selectivity ratio [6]: 9.85 |
